Assay results reported in US7427408B2, “Quorum sensing and biofilm formation” (priority 2002, dated 2008).

Experiments:
[1] = test system: S. mutans biofilms (wildtype and luxS mutant); assay: Treatment of in vitro biofilm with SDS (detergent resistance); format: cell-based, Streptococcus mutans; conditions: 1% SDS, shaken at 150 rpm for one hour
Procedure: Three samples of wildtype and mutant biofilms grown on glass coverslips were shaken at 150 rpm for one hour. The OD600 of the resulting supernatants were compared.
(§1) Biofilms of S. mutans were grown as follows. Individual sterile culture dishes were filled with 2.5 mL of brain heart infusion broth supplemented with 1% (w/v) sucrose. Next, a sterile 18 mm glass microscope cover slip was added to each dish and the culture dish was covered. Each sample was then inoculated with a defined volume of overnight culture. The dishes were incubated anaerobically at 37° C. overnight.
Biofilms were grown overnight using previously described conditions. For treatment with SDS, cover-slips were removed from overnight incubation and rinsed briefly. These were then placed into a fresh culture dish and 2mL of sterile, 1% (w/v) SDS solution was added to each dish. The biofilms were placed on a standard shaker set at 150 rpm for one hour at room temperature. […] These samples were measured for their OD600 values. […]
(§2) As biofilms are known to be very resistant to detergents and biocides, we were also interested to determine if this property was influenced by the luxS mutation. […] These supernatants were then checked by microscopy to ensure that cells were not clumped, and subsequently, measured for the OD600. […]

[2] = test system: wildtype S. mutans biofilms; assay: Treatment of in vitro wildtype biofilm with ampicillin; format: cell-based, Streptococcus mutans; conditions: 16 hours
Procedure: as §1
Biofilms were grown overnight using previously described conditions. For treatment with SDS, cover-slips were removed from overnight incubation and rinsed briefly. These were then placed into a fresh culture dish and 2mL of sterile, 1% (w/v) SDS solution was added to each dish. The biofilms were placed on a standard shaker set at 150 rpm for one hour at room temperature. Next, supernatant samples were checked at 40× magnification to confirm that cells were fully individualized and not connected in chains. These samples were measured for their OD600 values. For treatment with antibiotics, biofilms were again grown under standard conditions overnight. […]
as §2

[3] = test system: V. harveyi BB170 (AI-2 reporter strain); assay: AI-2 luminescence reporter assay of S. mutans conditioned media; format: cell-based, Vibrio harveyi; conditions: S. mutans incubated 3 hours in AB media with sucrose at 1% final concentration
Procedure: S. mutans was grown and assayed as described in Materials and Methods. Cells were grown overnight and resuspended to an OD600 of 0.4 in reporter assay (AB) media and incubated with aeration for 3 hours at 37° C. One sample was incubated in AB alone, while the other had sucrose added to a final concentration of 1%.
The AI-2 luminescence reporter assay was performed essentially as described (38), with the following modifications. To obtain cell free conditioned media, S. mutans was grown overnight as described. Stationary phase cells were resuspended in AB media to an OD600 of 0.4. Cells were then incubated at 37° C. with aeration for 3 hrs. […]
To determine luminescence, an overnight culture of V. harveyi BB170 was diluted 1:1000 into fresh AB medium and 180 μL of cells was added to each 1.5 mL microfuge tube. […]
To determine levels of background luminescence, a sample containing 200 μL of 1:1000 diluted V. harveyi was also included. […] All samples were measured hourly until peak induction at the 3 hr time point. Measurements were collected using a TD 20/20 luminometer and expressed as arbitrary luminescence units.
Since S. mutans is an acidogenic bacterium, pH readings were taken to ensure that there were no negative effects due to lowered pH.

CCCCCCCCCCCCOS(=O)(=O)[O-].[Na+] [SDS]
OD600 of supernatant, wildtype relative to luxS mutant [1]: about 6 fold

CC1(C)S[C@@H]2[C@H](NC(=O)[C@H](N)c3ccccc3)C(=O)N2[C@H]1C(=O)O [ampicillin]
cells surviving ampicillin treatment ([2]; 50 μg/mL ampicillin): < 1% | cells surviving ampicillin treatment ([2]; 500 μg/mL ampicillin): none survived

OC[C@H]1O[C@@](CO)(O[C@H]2O[C@H](CO)[C@@H](O)[C@H](O)[C@H]2O)[C@@H](O)[C@@H]1O [sucrose]
luminescence (AI-2 induction) relative to background [3]: potent reduction in luminescence to below background values
